Assay results: article PMC10650955, “α-Aminophosphonate inhibitors of metallo-β-lactamases NDM-1 and VIM-2” (RSC Medicinal Chemistry, 2023)
Counter-ions that a name gives are not always drawn.

Columns and labels:
[1] = molecular target: T1, NDM-1 (Klebsiella pneumoniae, UniProt C7C422); test: Dose rate inhibition studies for IC50 determination, NDM-1 enzymatic assay; format: biochemical; details: inhibitor 0-800 μM, 3 parallel measurements, N.I. = no enzyme inhibitory activity observed; for Enzyme IC50 NDM-1: 10 nM NDM-1, 100 μM ZnCl2, imipenem substrate; for IC50: Enzyme IC50 NDM-1, 10 nM NDM-1, 100 μM ZnCl2, imipenem substrate
T1 construct: made in house
Method: (§1) The […] synthesized compounds 5a–l were tested for their inhibitory activities against NDM-1, VIM-2 (Table 1), and GIM-1 in an in vitro enzymatic assay (ESI ^†).[41] The inhibitory activity was measured using enzyme concentrations of 0.1 nM VIM-2, 10 nM NDM-1 or 1 nM GIM-1, with an excess Zn(II) (100 μM, see Experimental methods), with inhibitor compounds with concentrations from 0 to 800 μM. Each data point was measured in triplicates. […] This is in line with previous reports.[42,43]
(§2) A 100 μl solution with buffer (50 mM HEPES (pH 7.2), 100 μM ZnCl2, 2.5% DMSO), purified enzyme (0.1 nM VIM-2, 10 nM NDM-1 or 1 nM GIM-1) and 800–0 μM inhibitor was incubated in a 96 well plate at 25 °C for 5 min. In addition, the enzyme buffer contained 400 μg ml^−1 bovine serum albumin (BSA) to prevent protein unfolding and loss of activity due to low concentrations.[67,68] 100 μM of the reporter substrate nitrocefin (VIM-2, GIM-1) or imipenem (NDM-1) was added to the enzyme–inhibitor solution and the increase in absorbance at 482 nm (nitrocefin) or 300 nm (imipenem) was recorded on a Spectramax M4 spectrophotometer (Molecular Devices). Each data point was performed in triplicates and the initial velocity for each inhibitor concentration was analyzed by a log [inhibitor] vs. response curve fitting to calculate IC50 in GraphPad Prism 9.2 software.

[2] = molecular target: T2, VIM-2 (Escherichia coli, UniProt Q5U7L7); test: Dose rate inhibition studies for IC50 determination, VIM-2 enzymatic assay; format: biochemical; details: inhibitor 0-800 μM, 3 parallel measurements, N.I. = no enzyme inhibitory activity observed; for Enzyme IC50 VIM-2: 0.1 nM VIM-2, 100 μM ZnCl2, nitrocefin substrate; for IC50: Enzyme IC50 VIM-2, 0.1 nM VIM-2, 100 μM ZnCl2, nitrocefin substrate
T2 construct: made in house
Method: as §1, §2

[3] = molecular target: T3, 15N-labelled VIM-2 (Escherichia coli, UniProt Q5U7L7); test: 1H,15N HSQC NMR chemical shift perturbation titration, VIM-2; format: binding; details: VIM-2 Kd, 0-16 equiv. ligand, pH 7.0, 310 K
T3 construct: made in house
Method: Solution NMR spectroscopy is a powerful tool to assess protein–ligand interactions under close to physiological conditions.[47] We, therefore, performed NMR chemical shift perturbation (CSP, for details, see section S8, ESI ^†) experiments to identify the amino acid residues of NDM-1 and VIM-2 that are involved in inhibitor binding, making use of the previously published protein assignments.[48,49] Titrations were conducted using ^15N-labelled proteins with 0, 0.5, 1, 2, 4, 8, and 16 equiv. of 5 inhibitors for NDM-1 and of 7 inhibitors for VIM-2.
For the titrations, ^15N-labelled NDM-1 and ^15N-labelled VIM-2 (250 μM), and titrated ligands (0.5 equiv. in 1 μL) were prepared in the same buffer as the protein (20 mM KPO4, 0.1 mM ZnCl2, pH 7.0 with 10% D2O and 2.5% DMSO-d6). ^1H,^15N HSQC spectra were acquired with 128 × 1024 complex points (F1 × F2) and spectral width of 9090 × 2740 Hz on ^15N-labeled NDM-1/VIM-2 and with every titration step up to 1 : 16 ratio between protein : ligand (0, 0.5, 1, 2, 4, 8, and 16 equiv. of ligand). All experiments were recorded on a Bruker 600 MHz spectrometer at 310 K equipped with a 5 mm TCI cryogenic probe. The NMR data were processed on the MestReNova software with the Mnova Binding plugin. The weighted average chemical shift perturbations (CSP) for the backbone amides were calculated from the observed chemical shift differences in the proton and nitrogen dimensions using the equation (chemical shift scaling factors: FH = 1, FN = 0.156) CSP = Δδ1H,15N = [drawing 13] .
7. Chemical shift perturbation histograms
Chemical shift perturbation was calculated according equation (1) 2
CSP = Δδ(1H,15N) = √(Δδ1H2 + (1⁄R × Δδ15N2) Rscale = 6.5 (1)
Where Δδ1H is the chemical shift change for proton dimension, Δδ15N is the chemical shift change for nitrogen dimension, Rscale is a
The chemical shift perturbations (CSP) were classified as significant (SSP) when the observed Δδ(1H,15N) was greater than the population
mean plus the standard deviation (µ+1σ) – solid line; (µ+2σ) – dashed line, and (µ+3σ) – dashed line.
Further on, Kd was calculated according: 3
([P]+[L]+Kd)− √([P]+[L]+Kd)2−4[P][L]
ΔδmaxΔδobs = Δδmax 2[P] (2)
Where Kd is the dissociation constant, [P] and [L] are protein and ligand concentrations, respectively. Δδmax were estimated in
MestReNova by extrapolation of the obser ved chemical shift differences Δδobs.

T1 sequence (C7C422 29-270 limits assumed): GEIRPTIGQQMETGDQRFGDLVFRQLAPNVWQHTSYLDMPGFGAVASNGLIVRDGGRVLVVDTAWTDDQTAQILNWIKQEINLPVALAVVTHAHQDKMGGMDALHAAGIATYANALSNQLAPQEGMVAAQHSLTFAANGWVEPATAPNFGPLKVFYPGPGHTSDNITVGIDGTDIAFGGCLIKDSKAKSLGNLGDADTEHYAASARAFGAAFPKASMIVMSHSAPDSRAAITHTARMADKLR

Compound	Enzyme IC50 NDM-1 [1]	Enzyme IC50 VIM-2 [2]	IC50 [2]	IC50 [1]	Kd [3]
O=C(Cc1ccsc1)NC(C1CCCCN1)P(=O)(O)O (centres unmarked) [Compound 5j-2, (Piperidin-2-yl(2-(thiophen-3-yl)acetamido)methyl)phos-phonic acid hydrochloride]	N.I.	N.I.	–	–	–
O=C(Cc1cc2ccccc2s1)NC(C1CCCCN1)P(=O)(O)O (single isomer, unassigned) [Compound 5k-2, ((2-(Benzo[b]thiophen-2-yl)acetamido)(piperidin-2-yl)methyl)phosphonic acid hydrochloride]	–	–	28.7 ± 10.1 µM	–	–
Cl.O=C(NC(C1CCCCN1)P(=O)(O)O)c1csc2c1CCCC2 (single isomer, unassigned) [Compound 5e-2, (Piperidin-2-yl(4,5,6,7-tetrahydrobenzo[b]thiophene-3-carboxamido)methyl)phosphonic acid hydrochloride]	N.I.	–	46.1 ± 15.6 µM	–	–
O=C(NC(C1CCCCN1)P(=O)(O)O)c1cc2ccccc2s1 (centres unmarked) [Compound 5g-2, ((Benzo[b]thiophene-2-carboxamido)(piperidin-2-yl)methyl)phosphonic acid hydrochloride]	–	–	4.1 ± 2.1 µM	46.8 ± 5.5 µM	–
Cl.O=C(Cc1csc2ccccc12)NC(C1CCCCN1)P(=O)(O)O (centres unmarked) [Compound 5l-1, ((2-(Benzo[b]thiophen-3-yl)acetamido)(piperidin-2-yl)methyl)phosphonic acid hydrochloride]	–	N.I.	–	7.9 ± 1.6 µM	–
O=C(Cc1csc2ccccc12)NC(C1CCCCN1)P(=O)(O)O (centres unmarked) [Compound 5l-2, ((2-(Benzo[b]thiophen-3-yl)acetamido)(piperidin-2-yl)methyl)phosphonic acid hydrochloride]	–	–	94.4 ± 5.8 µM	27.8 ± 21 µM	–
Cc1[nH]c(=S)sc1CC(=O)NC(C1CCCCN1)P(=O)(O)O (centres unmarked) [Compound 5a-1, ((2-(4-Methyl-2-thioxo-2,3-dihydrothiazol-5-yl)acet-amido)(piperidin-2-yl)methyl)phosphonic acid hydro-chloride]	N.I. ^b	–	353 ± 62 µM	–	900 ± 100 µM
O=C(NC(C1CCCCN1)P(=O)(O)O)c1cccs1 (centres unmarked) [Compound 5b-2, (Piperidin-2-yl(thiophene-2-carboxamido)methyl)phos-phonic acid hydrochloride]	N.I.	–	7.2 ± 0.4 µM	–	1400 ± 100 µM
Cl.O=C(NC(C1CCCCN1)P(=O)(O)O)c1scc2c1CCCC2 (single isomer, unassigned) [Compound 5f-1, (Piperidin-2-yl(4,5,6,7-tetrahydrobenzo[c]thiophene-1-carboxamido)methyl)phosphonic acid hydrochloride]	N.I.	–	37 ± 3 µM	–	–
O=C(NC(C1CCCCN1)P(=O)(O)O)c1cc2ccccc2s1 (centres unmarked) [Compound 5g-1, ((Benzo[b]thiophene-2-carboxamido)(piperidin-2-yl)methyl)phosphonic acid hydrochloride]	–	–	45 ± 5 µM	46.7 ± 9.7 µM	–
Cl.O=C(NC(C1CCCCN1)P(=O)(O)O)c1scc2c1CCCC2 (single isomer, unassigned) [Compound 5f-2, (Piperidin-2-yl(4,5,6,7-tetrahydrobenzo[c]thiophene-1-carboxamido)methyl)phosphonic acid hydrochloride]	N.I.	–	18.8 ± 0.5 µM	–	–
Cl.O=C(Cc1cc2ccccc2s1)NC(C1CCCCN1)P(=O)(O)O (single isomer, unassigned) [Compound 5k-1, ((2-(Benzo[b]thiophen-2-yl)acetamido)(piperidin-2-yl)methyl)phosphonic acid hydrochloride]	N.I.	–	56.6 ± 1 µM	–	–
O=C(NC(C1CCCCN1)P(=O)(O)O)c1csc2c1CCCC2 (single isomer, unassigned) [Compound 5e-1, (Piperidin-2-yl(4,5,6,7-tetrahydrobenzo[b]thiophene-3-carboxamido)methyl)phosphonic acid hydrochloride]	–	–	69.7 ± 26.2 µM	–	–
O=C(NC(C1CCCCN1)P(=O)(O)O)c1csc2ccccc12 (centres unmarked) [Compound 5h-2, ((Benzo[b]thiophene-3-carboxamido)(piperidin-2-yl)met-hyl)phosphonic acid hydrochloride]	N.I.	–	11.6 ± 4.7 µM	–	–
O=C(NC(C1CCCCN1)P(=O)(O)O)c1ccsc1 (centres unmarked) [Compound 5c-2, (Piperidin-2-yl(thiophene-3-carboxamido)methyl)phos-phonic acid hydrochloride]	N.I.	–	14.6 ± 2.3 µM	–	–
Cl.O=C(NC(C1CCCCN1)P(=O)(O)O)c1cc2c(s1)CCCC2 (centres unmarked) [Compound 5d-1, (Piperidin-2-yl(4,5,6,7-tetrahydrobenzo[b]thiophene-2-carboxamido)methyl)phosphonic acid hydrochloride]	N.I.	–	244 ± 35 µM	–	–
O=C(NC(C1CCCCN1)P(=O)(O)O)c1csc2ccccc12 (centres unmarked) [Compound 5h-1, ((Benzo[b]thiophene-3-carboxamido)(piperidin-2-yl)met-hyl)phosphonic acid hydrochloride]	N.I.	–	40.6 ± 3.9 µM	–	–
Cl.O=C(NC(C1CCCCN1)P(=O)(O)O)c1cc2c(s1)CCCC2 (centres unmarked) [Compound 5d-2, (Piperidin-2-yl(4,5,6,7-tetrahydrobenzo[b]thiophene-2-carboxamido)methyl)phosphonic acid hydrochloride]	N.I.	–	4.5 ± 0.8 µM	–	–
Cc1[nH]c(=S)sc1CC(=O)NC(C1CCCCN1)P(=O)(O)O (centres unmarked) [Compound 5a-2, ((2-(4-Methyl-2-thioxo-2,3-dihydrothiazol-5-yl)acet-amido)(piperidin-2-yl)methyl)phosphonic acid hydro-chloride]	N.I.	N.I.	–	–	–
